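Grown in 96-well plates, cells were treated for 48 hours with each compound at five concentrations. Insufficient inhibition: endpoint recorded as highest concentration tested. Here, GI50 denotes the concentration required for 50% inhibition of growth.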 The source made the active and inactive calls. Rule as the data show it: active = GI50 up to about 1.1 µM and inactive = higher.
Key:
Experiment in all cases: NCI-60 cell line screen, 48 h
M19-MEL = system: M19-MEL
DMS-114 = system: DMS-114
SNB-78 = system: SNB-78
LXFL 529 = system: LXFL 529
XF498 = system: XF498
KM-20L2 = system: KM-20L2
Hs-578T = system: Hs-578T
HOP-18 = system: HOP-18
RXF 631 = system: RXF 631

Structure (SMILES): CC1=NN(C(=O)c2ccc(Cl)cc2)C(=O)/C1=C/c1cccc([N+](=O)[O-])c1
- GI50 (M19-MEL): > 100 µM (inactive)
- GI50 (DMS-114): > 100 µM (inactive)
- GI50 (SNB-78): > 100 µM (inactive)
- GI50 (LXFL 529): > 100 µM (inactive)
- GI50 (XF498): > 100 µM (inactive)
- GI50 (KM-20L2): > 100 µM (inactive)

Structure (SMILES): O=C1OC2(c3ccc(O)cc3Oc3cc(O)ccc32)c2c1c(-c1ccccc1)c(-c1ccccc1)c(-c1ccccc1)c2-c1ccccc1
- GI50 (Hs-578T): 22 µM (inactive)

Structure (SMILES): O=C(CSc1nc2ccc([N+](=O)[O-])cc2s1)c1ccc2ccccc2c1
- GI50 (Hs-578T): 89.5 µM (inactive)

Structure (SMILES): CC(C)(C)N(Cc1ccc2c(c1)OCO2)C(=O)/C=C\[S+]([O-])c1ccccc1 (stereo unspecified)
- GI50 (Hs-578T): 2.33 µM (inactive)

Structure (SMILES): COc1cc(/C=C2\CCC(C)C3=C(c4cc(OC)c(OC)c(OC)c4)C(C#N)=C(N)OC32)cc(OC)c1OC (stereo unspecified)
- GI50 (Hs-578T): 2.1 µM (inactive)

Structure (SMILES): O=C(O)CCC1(c2ccccc2)NC(=O)NC1=O (stereo unspecified)
- GI50 (Hs-578T): > 100 µM (inactive)

Structure (SMILES): COC(=O)C(C(=O)C(=O)NC1Nc2ccc(C)cc2S1)c1nc2ccc(Cl)cc2nc1O (stereo unspecified)
- GI50 (Hs-578T): > 100 µM (inactive)

Structure (SMILES): COc1ccc(S(=O)(=O)c2ccccc2[N+](=O)[O-])cc1
- GI50 (M19-MEL): 77.8 µM (inactive)
- GI50 (DMS-114): 57.7 µM (inactive)
- GI50 (HOP-18): > 100 µM (inactive)
- GI50 (LXFL 529): 92 µM (inactive)
- GI50 (KM-20L2): > 100 µM (inactive)

Structure (SMILES): CN1CCN([C@H]2C[C@H]3[C@@H]4CC=C5C[C@@H](O)CC[C@]5(C)[C@H]4CC[C@]3(C)[C@H]2O)CC1
- GI50 (Hs-578T): > 100 µM (inactive)

Structure (SMILES): CC(=O)Nc1ccc(-c2nnc(SCC(=O)Nc3ccccc3)o2)cc1
- GI50 (M19-MEL): 74.8 µM (inactive)
- GI50 (DMS-114): 39.8 µM (inactive)
- GI50 (SNB-78): 80 µM (inactive)
- GI50 (HOP-18): > 100 µM (inactive)
- GI50 (LXFL 529): 34.6 µM (inactive)
- GI50 (KM-20L2): > 100 µM (inactive)

Structure (SMILES): OC1C[C@H](c2ccccc2)C2(C(O)c3ccccc3C2O)[C@@H](c2ccccc2)C1 (stereo partly specified)
- GI50 (Hs-578T): > 100 µM (inactive)

Structure (SMILES): CC(C)(C)OC(=O)NC(Cc1ccc(OCc2ccccc2)cn1)C(=O)NCc1ccccc1 (stereo unspecified)
- GI50 (Hs-578T): 29 µM (inactive)

Structure (SMILES): COC(=O)C1CC2(c3ccccc3)C(=O)c3ccccc3N2O1 (stereo unspecified)
- GI50 (M19-MEL): 64.4 µM (inactive)
- GI50 (DMS-114): 46.6 µM (inactive)
- GI50 (SNB-78): > 100 µM (inactive)
- GI50 (HOP-18): > 100 µM (inactive)
- GI50 (LXFL 529): 50 µM (inactive)
- GI50 (KM-20L2): > 100 µM (inactive)

Structure (SMILES): COC(=O)[C@@H](N1C(=O)c2ccccc2C1=O)C1(C)CC(Cl)=NO1 (stereo partly specified)
- GI50 (Hs-578T): 29.8 µM (inactive)

Structure (SMILES): Cc1ccc(NC(=O)/C=C/c2ccccc2)c(C)c1
- GI50 (Hs-578T): 21.7 µM (inactive)

Structure (SMILES): [O-]c1c[n+](CC[n+]2cc([O-])on2)no1
- GI50 (Hs-578T): > 100 µM (inactive)

Structure (SMILES): CC1(C)OC(C(N)=O)=C(C(N)=O)O1
- GI50 (M19-MEL): > 100 µM (inactive)
- GI50 (DMS-114): > 100 µM (inactive)
- GI50 (HOP-18): > 100 µM (inactive)
- GI50 (LXFL 529): > 100 µM (inactive)
- GI50 (XF498): > 100 µM (inactive)
- GI50 (KM-20L2): > 100 µM (inactive)

Structure (SMILES): O=Cc1c2ccccc2n2ccc3c4ccccc4[nH]c3c12
- GI50 (Hs-578T): > 10 µM (inactive)

Structure (SMILES): COc1ccc2c(c1)C(OC)C1c3c(cc4c(c3-2)OCO4)CCN1C (stereo unspecified)
- GI50 (Hs-578T): 1.96 µM (inactive)

Structure (SMILES): O[C@@H]1CCC[C@@H]2NC[C@@H](c3ccc4c(c3)OCO4)[C@H]12
- GI50 (Hs-578T): 99.1 µM (inactive)

Structure (SMILES): O=C(Cn1cc(F)c(=O)[nH]c1=O)C12CC3CC(CC(C3)C1)C2
- GI50 (Hs-578T): > 100 µM (inactive)

Structure (SMILES): COc1ccc2c3c1OC1C(OC)(OC)C=C[C@@]4(Br)[C@@H](C2)N(CC2CC2)CC[C@]314 (stereo partly specified)
- GI50 (Hs-578T): 41.7 µM (inactive)

Structure (SMILES): CC(=O)c1sc2n(C)c(=O)c3ccccc3[n+]2c1C
- GI50 (Hs-578T): > 100 µM (inactive)

Structure (SMILES): COc1ccc(N2C(=O)C3ON(C(C(N)=O)c4ccccc4)C(c4cc5ccccc5c5ccccc45)C3C2=O)cc1 (stereo unspecified)
- GI50 (Hs-578T): > 50 µM (inactive)

Structure (SMILES): O=[N+]([O-])c1cccc2nccc(NCCCO)c12
- GI50 (Hs-578T): 13.1 µM (inactive)

Structure (SMILES): N#C/C(=C/NC(=S)NCc1ccccc1)C(N)=O
- GI50 (Hs-578T): > 100 µM (inactive)

Structure (SMILES): CC12CCC3C(CCC4(O)C=CCCC34C=O)C1(O)CC(O)C2c1ccc(=O)oc1 (stereo unspecified)
- GI50 (M19-MEL): 0.0851 µM (active)
- GI50 (DMS-114): < 0.05 µM (active)
- GI50 (SNB-78): 0.0593 µM (active)
- GI50 (HOP-18): 0.0679 µM (active)
- GI50 (XF498): 0.0873 µM (active)
- GI50 (KM-20L2): 0.0668 µM (active)

Structure (SMILES): c1cc(Sc2nc(Sc3ccncc3)nc(Sc3ccncc3)n2)ccn1
- GI50 (Hs-578T): > 100 µM (inactive)

Structure (SMILES): CCN(CC)CCCNc1nncc2c(C)c3[nH]c4ccccc4c3cc12
- GI50 (Hs-578T): 0.865 µM (active)

Structure (SMILES): CCOC(=O)c1c(N2CCOCC2)[nH]c(=O)c(C(c2c(Cl)cccc2Cl)c2c(O)c(C(=O)OCC)c(N3CCOCC3)[nH]c2=O)c1O
- GI50 (Hs-578T): 4.86 µM (inactive)

Structure (SMILES): CC[C@]1(Cc2ccc(OC)c(OC)c2)C=[N+]([O-])O[C@H](OCc2ccccc2)[C@@H]1OC(C)=O
- GI50 (Hs-578T): 20.4 µM (inactive)

Structure (SMILES): CC1CCCP(=O)(c2ccccc2)CC1 (stereo unspecified)
- GI50 (M19-MEL): > 100 µM (inactive)
- GI50 (RXF 631): > 100 µM (inactive)
- GI50 (DMS-114): > 100 µM (inactive)
- GI50 (SNB-78): > 100 µM (inactive)
- GI50 (HOP-18): 0.202 µM (active)
- GI50 (LXFL 529): > 100 µM (inactive)
- GI50 (KM-20L2): > 100 µM (inactive)

Structure (SMILES): CC(C)=CCc1c(O)ccc2c1OC1c3ccc(O)c(CC=C(C)C)c3OCC21 (stereo unspecified)
- GI50 (M19-MEL): 11.4 µM (inactive)
- GI50 (DMS-114): 11.4 µM (inactive)
- GI50 (SNB-78): 12.1 µM (inactive)
- GI50 (HOP-18): 17.6 µM (inactive)
- GI50 (XF498): 17.8 µM (inactive)
- GI50 (KM-20L2): 18.7 µM (inactive)

Structure (SMILES): CCOC(=O)C1=C(c2ccccc2)C12N(Cc1ccccc1)C(=O)C2(c1ccccc1)c1ccccc1 (stereo unspecified)
- GI50 (Hs-578T): 36.9 µM (inactive)

Structure (SMILES): COc1ccc(-c2cc(N3CCN(c4ccc(Cl)cc4)CC3)c(C#N)c(=O)o2)cc1
- GI50 (DMS-114): 7.41 µM (inactive)
- GI50 (SNB-78): 11.7 µM (inactive)
- GI50 (HOP-18): 4.24 µM (inactive)
- GI50 (LXFL 529): 16.7 µM (inactive)
- GI50 (XF498): 3.09 µM (inactive)
- GI50 (KM-20L2): > 100 µM (inactive)

Structure (SMILES): C=CCNC(=O)C(C)C1CCC2(C)C=CC(=O)C(C)=C2C1O (stereo unspecified)
- GI50 (M19-MEL): > 100 µM (inactive)
- GI50 (DMS-114): > 100 µM (inactive)
- GI50 (SNB-78): > 25.8 µM (inactive)
- GI50 (HOP-18): > 100 µM (inactive)
- GI50 (XF498): > 100 µM (inactive)
- GI50 (KM-20L2): > 100 µM (inactive)
